Assay results taken from publication PMC8967716, “Inhibition of calcium-triggered secretion by hydrocarbon-stapled peptides” (Nature, 2022).
“And” between values parts separate entries of the source, which are not always exact repeats. Equal entries are not always repeated. Positions of bridges follow the written chain, without caps; N, C: chain ends. Non-standard residues stand in square brackets, D forms with d. Residues, ends and D or L forms follow the SMILES beside them. S5 = C=CCCC[C@](C)(N)C(=O)O

Biological target: T1, neuronal SNAREs and Syt1(QM) (Rattus norvegicus, UniProt P21707, E295A/R281A/R398A/R399A/Y338W)
T1 construct: made in house
Experiment: Single-vesicle content mixing assay, neuronal SNAREs and Syt1(QM)
Format: biochemical

[1] = 10 μM SP9, each value one repeat experiment
[2] = 500 μM Ca2+, 10 μM SP9, each value one repeat experiment

T1 sequence (P21707 whole entry R281A/E295A/Y338W/R398A/R399A): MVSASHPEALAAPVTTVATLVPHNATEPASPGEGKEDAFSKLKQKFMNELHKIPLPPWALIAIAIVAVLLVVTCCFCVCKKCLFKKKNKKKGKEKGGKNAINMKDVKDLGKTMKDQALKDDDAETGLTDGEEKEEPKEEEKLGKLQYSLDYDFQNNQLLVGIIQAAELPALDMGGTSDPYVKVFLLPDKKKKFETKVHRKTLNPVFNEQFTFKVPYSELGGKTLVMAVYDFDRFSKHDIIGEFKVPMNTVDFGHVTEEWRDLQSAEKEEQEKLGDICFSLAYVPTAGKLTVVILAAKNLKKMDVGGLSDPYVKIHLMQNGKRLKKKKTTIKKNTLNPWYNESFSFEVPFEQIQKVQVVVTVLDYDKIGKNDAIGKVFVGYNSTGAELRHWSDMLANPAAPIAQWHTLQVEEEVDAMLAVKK

CC[C@H](C)[C@H](NC(=O)[C@]1(C)CCCC=CCCC[C@](C)(NC(=O)[C@H](CCC(=O)O)NC(=O)[C@H](CCC(=O)O)NC(C)=O)C(=O)N[C@@H](CCCCN)C(=O)N[C@@H](CC(=O)O)C(=O)N[C@@H](C)C(=O)N1)C(=O)N[C@@H](CCCNC(=N)N)C(=O)N[C@@]1(C)CCCC=CCCC[C@@](C)(C(=O)N[C@@H](CC(=O)O)C(=O)N[C@@H](CCC(=O)O)C(=O)N[C@@H](CCC(N)=O)C(=O)N[C@@H](CS)C(N)=O)NC(=O)[C@H](CCSC)NC(=O)[C@H](C(C)C)NC(=O)[C@H](CC(C)C)NC1=O [SP9] (Ac-EE[S5]KDA[S5]IR[S5]LVM[S5]DEQC-NH2; staple 3-7, 10-14)
Ca2+ independent fusion per sec (average probability) [1]: 0.0007051 and 0.0008431 and 0.0008917
Vesicle association [1]: 67 and 40 and 70
Ca2+ triggered fusion accumulative probability (within 1 min) [2]: 0.0513 and 0.04654 and 0.06303
Ca2+ triggered fusion amplitude (first 1-sec time bin) [2]: 0.004413 and 0.005288 and 0.004669
effect on Ca2+-independent or Ca2+-triggered fusion with Syt1(QM) (SP9 vs no peptide): little effect
